From patent US20250282827A1, “LIPIDATED POLYMYXIN ANALOGUES” (priority 2021, published 2025)
≈ marks a conversion by molar mass, not a printed value. Positions of bridges follow the written chain, without caps; N, C: chain ends. Non-standard residues stand in square brackets, D forms with d. Residues, ends and D or L forms follow the SMILES beside them. *: point of attachment. CH2CH2OBz(4-tBu) = CC(C)(C)c1ccc(C(=O)OCC*)cc1; Ethyl(2-decanoyloxy) = CCCCCCCCCC(=O)OCC*; Ethyl(2-butanoyloxy) = CCCC(=O)OCC*; Ethyl(2-propionyloxy) = CCC(=O)OCC*; Ethyl(2-OPiv) = CC(C)(C)C(=O)OCC*; Ethyl(2-OBz) = O=C(OCC*)c1ccccc1; X14 = CCCCCCCCCCCC(=O)OCC*; hCys = N[C@@H](CCS)C(=O)O; Dab = NCC[C@H](N)C(=O)O; Dap = NC[C@H](N)C(=O)O; X4 = CCCCCCCC(=O)OCC*; X1 = CCCCCC(=O)OCC*; Mpa = O=C(O)CCS

test system: E. coli ATCC 25922; type: cell-based, Escherichia coli; conditions: ATCC 25922
From the text: All 81 compounds prepared in Examples 2 and 3 underwent screening against a panel of Gram-negative bacterium to assess their ability to inhibit bacterial growth. […] The median value is presented.

SMILES | MIC E. coli ATCC 25922 [µg/mL]
CCC(=O)OCCSC[C@H](N)C(=O)N[C@H](C(=O)N[C@@H](CCN)C(=O)N[C@H]1CCNC(=O)[C@H]([C@@H](C)O)NC(=O)[C@H](CCN)NC(=O)[C@H](CCN)NC(=O)[C@H](CC(C)C)NC(=O)[C@@H](Cc2ccccc2)NC(=O)[C@H](CCN)NC1=O)[C@@H](C)O [Compound 61] (H-C(Ethyl(2-propionyloxy))T[Dab][Dab][Dab][dF]L[Dab][Dab]T; lactam 4-C) | >128
CCC(=O)OCCSC[C@@H](N)C(=O)N[C@H](C(=O)N[C@@H](CCN)C(=O)N[C@H]1CCNC(=O)[C@H]([C@@H](C)O)NC(=O)[C@H](CCN)NC(=O)[C@H](CCN)NC(=O)[C@H](CC(C)C)NC(=O)[C@@H](Cc2ccccc2)NC(=O)[C@H](CCN)NC1=O)[C@@H](C)O [Compound 62] (H-[dC](Ethyl(2-propionyloxy))T[Dab][Dab][Dab][dF]L[Dab][Dab]T; lactam 4-C) | 1 (≈ 0.857 µM)
CCC(=O)OCCSCCC(=O)N[C@H](C(=O)N[C@@H](CCN)C(=O)N[C@H]1CCNC(=O)[C@H]([C@@H](C)O)NC(=O)[C@H](CCN)NC(=O)[C@H](CCN)NC(=O)[C@H](CC(C)C)NC(=O)[C@@H](Cc2ccccc2)NC(=O)[C@H](CCN)NC1=O)[C@@H](C)O [Compound 63] ([Mpa](Ethyl(2-propionyloxy))T[Dab][Dab][Dab][dF]L[Dab][Dab]T; lactam 4-C) | 8 (≈ 6.95 µM)
CCC(=O)OCCSCC[C@H](N)C(=O)N[C@H](C(=O)N[C@@H](CCN)C(=O)N[C@H]1CCNC(=O)[C@H]([C@@H](C)O)NC(=O)[C@H](CCN)NC(=O)[C@H](CCN)NC(=O)[C@H](CC(C)C)NC(=O)[C@@H](Cc2ccccc2)NC(=O)[C@H](CCN)NC1=O)[C@@H](C)O [Compound 64] (H-[hCys](Ethyl(2-propionyloxy))T[Dab][Dab][Dab][dF]L[Dab][Dab]T; lactam 4-C) | >128
CCC(=O)OCCSC[C@H](N)C(=O)N[C@H](C(=O)N[C@@H](CCN)C(=O)N[C@H]1CCNC(=O)[C@H]([C@@H](C)O)NC(=O)[C@H](CCN)NC(=O)[C@H](CCN)NC(=O)[C@H](CC(C)C)NC(=O)[C@@H](Cc2ccccc2)NC(=O)[C@H](CCN)NC1=O)[C@@H](C)O [Compound 65] (H-C(Ethyl(2-propionyloxy))T[Dab][Dab][Dab][dF]L[Dab][Dab]T; lactam 4-C) | 64 (≈ 54.9 µM)
CCCC(=O)OCCSC[C@H](N)C(=O)N[C@H](C(=O)N[C@@H](CCN)C(=O)N[C@H]1CCNC(=O)[C@H]([C@@H](C)O)NC(=O)[C@H](CCN)NC(=O)[C@H](CCN)NC(=O)[C@H](CC(C)C)NC(=O)[C@@H](Cc2ccccc2)NC(=O)[C@H](CCN)NC1=O)[C@@H](C)O [Compound 66] (H-C(Ethyl(2-butanoyloxy))T[Dab][Dab][Dab][dF]L[Dab][Dab]T; lactam 4-C) | 16 (≈ 13.6 µM)
CCCCCC(=O)OCCSC[C@H](N)C(=O)N[C@H](C(=O)N[C@@H](CCN)C(=O)N[C@H]1CCNC(=O)[C@H]([C@@H](C)O)NC(=O)[C@H](CCN)NC(=O)[C@H](CCN)NC(=O)[C@H](CC(C)C)NC(=O)[C@@H](Cc2ccccc2)NC(=O)[C@H](CCN)NC1=O)[C@@H](C)O [Compound 67] (H-C(X1)T[Dab][Dab][Dab][dF]L[Dab][Dab]T; lactam 4-C) | 4 (≈ 3.31 µM)
CCCCCCCC(=O)OCCSC[C@H](N)C(=O)N[C@H](C(=O)N[C@@H](CCN)C(=O)N[C@H]1CCNC(=O)[C@H]([C@@H](C)O)NC(=O)[C@H](CCN)NC(=O)[C@H](CCN)NC(=O)[C@H](CC(C)C)NC(=O)[C@@H](Cc2ccccc2)NC(=O)[C@H](CCN)NC1=O)[C@@H](C)O [Compound 68] (H-C(X4)T[Dab][Dab][Dab][dF]L[Dab][Dab]T; lactam 4-C) | 1 (≈ 0.809 µM)
CCCCCCCCCC(=O)OCCSC[C@H](N)C(=O)N[C@H](C(=O)N[C@@H](CCN)C(=O)N[C@H]1CCNC(=O)[C@H]([C@@H](C)O)NC(=O)[C@H](CCN)NC(=O)[C@H](CCN)NC(=O)[C@H](CC(C)C)NC(=O)[C@@H](Cc2ccccc2)NC(=O)[C@H](CCN)NC1=O)[C@@H](C)O [Compound 69] (H-C(Ethyl(2-decanoyloxy))T[Dab][Dab][Dab][dF]L[Dab][Dab]T; lactam 4-C) | 2 (≈ 1.58 µM)
CCCCCCCCCCCC(=O)OCCSC[C@H](N)C(=O)N[C@H](C(=O)N[C@@H](CCN)C(=O)N[C@H]1CCNC(=O)[C@H]([C@@H](C)O)NC(=O)[C@H](CCN)NC(=O)[C@H](CCN)NC(=O)[C@H](CC(C)C)NC(=O)[C@@H](Cc2ccccc2)NC(=O)[C@H](CCN)NC1=O)[C@@H](C)O [Compound 70] (H-C(X14)T[Dab][Dab][Dab][dF]L[Dab][Dab]T; lactam 4-C) | 8 (≈ 6.19 µM)
CC(C)C[C@@H]1NC(=O)[C@@H](Cc2ccccc2)NC(=O)[C@H](CCN)NC(=O)[C@@H](NC(=O)[C@H](CCN)NC(=O)[C@@H](NC(=O)[C@@H](N)CSCCOC(=O)C(C)(C)C)[C@@H](C)O)CCNC(=O)[C@H]([C@@H](C)O)NC(=O)[C@H](CCN)NC(=O)[C@H](CCN)NC1=O [Compound 71] (H-C(Ethyl(2-OPiv))T[Dab][Dab][Dab][dF]L[Dab][Dab]T; lactam 4-C) | 32 (≈ 26.8 µM)
CC(C)C[C@@H]1NC(=O)[C@@H](Cc2ccccc2)NC(=O)[C@H](CCN)NC(=O)[C@@H](NC(=O)[C@H](CCN)NC(=O)[C@@H](NC(=O)[C@@H](N)CSCCOC(=O)c2ccc(C(C)(C)C)cc2)[C@@H](C)O)CCNC(=O)[C@H]([C@@H](C)O)NC(=O)[C@H](CCN)NC(=O)[C@H](CCN)NC1=O [Compound 73] (H-C(CH2CH2OBz(4-tBu))T[Dab][Dab][Dab][dF]L[Dab][Dab]T; lactam 4-C) | 1 (≈ 0.787 µM)
CCC(=O)OCCSC[C@@H](N)C(=O)N[C@H](C(=O)N[C@@H](CCN)C(=O)N[C@H]1CCNC(=O)[C@H]([C@@H](C)O)NC(=O)[C@H](CCN)NC(=O)[C@H](CCN)NC(=O)[C@H](CC(C)C)NC(=O)[C@@H](Cc2ccccc2)NC(=O)[C@H](CCN)NC1=O)[C@@H](C)O [Compound 74] (H-[dC](Ethyl(2-propionyloxy))T[Dab][Dab][Dab][dF]L[Dab][Dab]T; lactam 4-C) | 2 (≈ 1.71 µM)
CCCC(=O)OCCSC[C@@H](N)C(=O)N[C@H](C(=O)N[C@@H](CCN)C(=O)N[C@H]1CCNC(=O)[C@H]([C@@H](C)O)NC(=O)[C@H](CCN)NC(=O)[C@H](CCN)NC(=O)[C@H](CC(C)C)NC(=O)[C@@H](Cc2ccccc2)NC(=O)[C@H](CCN)NC1=O)[C@@H](C)O [Compound 75] (H-[dC](Ethyl(2-butanoyloxy))T[Dab][Dab][Dab][dF]L[Dab][Dab]T; lactam 4-C) | 1 (≈ 0.847 µM)

Other lines, results leading:

MIC E. coli ATCC 25922 [µg/mL] | SMILES
0.125 (≈ 0.103 µM) | CCCCCC(=O)OCCSC[C@@H](N)C(=O)N[C@H](C(=O)N[C@@H](CCN)C(=O)N[C@H]1CCNC(=O)[C@H]([C@@H](C)O)NC(=O)[C@H](CCN)NC(=O)[C@H](CCN)NC(=O)[C@H](CC(C)C)NC(=O)[C@@H](Cc2ccccc2)NC(=O)[C@H](CCN)NC1=O)[C@@H](C)O [Compound 76] (H-[dC](X1)T[Dab][Dab][Dab][dF]L[Dab][Dab]T; lactam 4-C)
0.25 (≈ 0.202 µM) | CCCCCCCC(=O)OCCSC[C@@H](N)C(=O)N[C@H](C(=O)N[C@@H](CCN)C(=O)N[C@H]1CCNC(=O)[C@H]([C@@H](C)O)NC(=O)[C@H](CCN)NC(=O)[C@H](CCN)NC(=O)[C@H](CC(C)C)NC(=O)[C@@H](Cc2ccccc2)NC(=O)[C@H](CCN)NC1=O)[C@@H](C)O [Compound 77] (H-[dC](X4)T[Dab][Dab][Dab][dF]L[Dab][Dab]T; lactam 4-C)
0.25 (≈ 0.209 µM) | CC(C)C[C@@H]1NC(=O)[C@@H](Cc2ccccc2)NC(=O)[C@H](CCN)NC(=O)[C@@H](NC(=O)[C@H](CCN)NC(=O)[C@@H](NC(=O)[C@H](N)CSCCOC(=O)C(C)(C)C)[C@@H](C)O)CCNC(=O)[C@H]([C@@H](C)O)NC(=O)[C@H](CCN)NC(=O)[C@H](CCN)NC1=O [Compound 79] (H-[dC](Ethyl(2-OPiv))T[Dab][Dab][Dab][dF]L[Dab][Dab]T; lactam 4-C)
0.5 (≈ 0.394 µM) | CC(C)C[C@@H]1NC(=O)[C@@H](Cc2ccccc2)NC(=O)[C@H](CCN)NC(=O)[C@@H](NC(=O)[C@H](CCN)NC(=O)[C@@H](NC(=O)[C@H](N)CSCCOC(=O)c2ccc(C(C)(C)C)cc2)[C@@H](C)O)CCNC(=O)[C@H]([C@@H](C)O)NC(=O)[C@H](CCN)NC(=O)[C@H](CCN)NC1=O [Compound 80] (H-[dC](CH2CH2OBz(4-tBu))T[Dab][Dab][Dab][dF]L[Dab][Dab]T; lactam 4-C)
16 (≈ 13.9 µM) | CCC(=O)OCCSC[C@H](N)C(=O)N[C@H](C(=O)N[C@@H](CN)C(=O)N[C@H]1CCNC(=O)[C@H]([C@@H](C)O)NC(=O)[C@H](CCN)NC(=O)[C@H](CCN)NC(=O)[C@H](CC(C)C)NC(=O)[C@@H](Cc2ccccc2)NC(=O)[C@H](CCN)NC1=O)[C@@H](C)O [Compound 81] (H-C(Ethyl(2-propionyloxy))T[Dap][Dab][Dab][dF]L[Dab][Dab]T; lactam 4-C)
1 (≈ 0.868 µM) | CCC(=O)OCCSC[C@@H](N)C(=O)N[C@H](C(=O)N[C@@H](CN)C(=O)N[C@H]1CCNC(=O)[C@H]([C@@H](C)O)NC(=O)[C@H](CCN)NC(=O)[C@H](CCN)NC(=O)[C@H](CC(C)C)NC(=O)[C@@H](Cc2ccccc2)NC(=O)[C@H](CCN)NC1=O)[C@@H](C)O [Compound 82] (H-[dC](Ethyl(2-propionyloxy))T[Dap][Dab][Dab][dF]L[Dab][Dab]T; lactam 4-C)
2 (≈ 1.76 µM) | CCC(=O)OCCSCCC(=O)N[C@H](C(=O)N[C@@H](CN)C(=O)N[C@H]1CCNC(=O)[C@H]([C@@H](C)O)NC(=O)[C@H](CCN)NC(=O)[C@H](CCN)NC(=O)[C@H](CC(C)C)NC(=O)[C@@H](Cc2ccccc2)NC(=O)[C@H](CCN)NC1=O)[C@@H](C)O [Compound 83] ([Mpa](Ethyl(2-propionyloxy))T[Dap][Dab][Dab][dF]L[Dab][Dab]T; lactam 4-C)

same assay, conditions: median of triplicate

SMILES | MIC E. coli ATCC 25922 [µg/mL]
CC(C)C[C@@H]1NC(=O)[C@@H](Cc2ccccc2)NC(=O)[C@H](CCN)NC(=O)[C@@H](NC(=O)[C@H](CCN)NC(=O)[C@@H](NC(=O)[C@@H](N)CSCCOC(=O)c2ccccc2)[C@@H](C)O)CCNC(=O)[C@H]([C@@H](C)O)NC(=O)[C@H](CCN)NC(=O)[C@H](CCN)NC1=O [Compound 72] (H-C(Ethyl(2-OBz))T[Dab][Dab][Dab][dF]L[Dab][Dab]T; lactam 4-C) | 8 (≈ 6.59 µM)
